From US20050192547A1, “Combinations of antiseptic and antibiotic agents containing medical devices” (priority 2002, published 2005)
In brackets after ≈: the same amount, converted by molar mass. Read-outs that look alike come from different tables or passages of the source.

Experiments:
S. epidermidis [1] = experiment: Minimum inhibitory concentration in Trypticase Soy Broth, synergy (fractional inhibitory concentration); assay type: cell-based, Staphylococcus epidermidis
S. epidermidis [2] = experiment: microbe, parasite or virus in culture; assay type: cell-based, Staphylococcus epidermidis; settings: for MIC: Staphylococcus epidermidis
[3] = tetrahydrofuran/methanol solvent systems
[4] = Staphylococcus epidermidis, inoculum of 10^4 cfu/ml, read-out: MIC
[5] = after 10-20 passages, inoculum 10^4 cfu/ml
[6] = after 10 transfers, inoculum 10^6 cfu/ml

Compound | MIC (S. epidermidis [2]; read-out: MIC AFTER PASSAGE) [µg/mL] | INCREASE IN MIC (S. epidermidis [2]; [5]) | MIC (S. epidermidis [2]; read-out: MIC BEFORE PASSAGE) [µg/mL] | further results
CC(=O)O.CC(=O)O.NC(=N\CCCCCC/N=C(N)/N=C(\N)Nc1ccc(Cl)cc1)/N=C(\N)Nc1ccc(Cl)cc1 [Chlorhexidine (CHX), chlorhexidine diacetate] | – | – | – | MIC (S. epidermidis [1]; inoculum of 10^4 cfu/ml): 0.5 µg/mL; INCREASE IN MIC (S. epidermidis [2]): 2 fold; MIC AFTER PASSAGE (S. epidermidis [2]): 1.0 µg/mL; MIC BEFORE PASSAGE (S. epidermidis [2]): 0.5 µg/mL
CN(C)c1ccc(O)c2c1C[C@H]1C[C@H]3[C@H](N(C)C)C(O)=C(C(N)=O)C(=O)[C@@]3(O)C(O)=C1C2=O [Minocycline (M), minocycline] | 0.156 (≈ 0.341 µM) | 2 fold | – | MIC (S. epidermidis [1]; [4]): 0.078 µg/mL; INCREASE IN MIC (S. epidermidis [2]; [6]): 4 fold
CCn1cc(C(=O)O)c(=O)c2cc(F)c(N3CCNCC3)cc21 [Norfloxacin (Nf), norfloxacin] | 2 (≈ 6.26 µM) | 40 fold | – | MIC (S. epidermidis [1]; [4]): 0.05 µg/mL; upper limit incorporated owing to low solubility [3]: about 0.5 percent (w/v)
CO[C@H]1/C=C/O[C@@]2(C)Oc3c(C)c(O)c4c(O)c(c(/C=N/N5CCN(C)CC5)c(O)c4c3C2=O)NC(=O)/C(C)=C\C=C\[C@H](C)[C@H](O)[C@@H](C)[C@@H](O)[C@@H](C)[C@H](OC(C)=O)[C@@H]1C [Rifampin (R), rifampin] | 500 (≈ 608 µM) | 25,000 fold | 0.0195 (≈ 0.0237 µM) | –
NC[C@H]1O[C@H](O[C@H]2[C@H](O)[C@@H](O[C@H]3O[C@H](CO)[C@@H](O)[C@H](N)[C@H]3O)[C@H](N)C[C@@H]2N)[C@H](N)C[C@@H]1O [Tobramycin (Tb), tobramycin] | 0.5 (≈ 1.07 µM) | 20 fold | 0.025 (≈ 0.0535 µM) | –
Oc1cc(Cl)ccc1Oc1ccc(Cl)cc1Cl [Triclosan (T), triclosan] | 2.5 (≈ 8.63 µM) | 7 fold | 0.35 (≈ 1.21 µM) | MIC (S. epidermidis [1]; Staphylococcus epidermidis): 0.35 µg/mL; INCREASE IN MIC (S. epidermidis [2]; [6]): 7 fold
polyhexamethylenebiguanide [PHMB] | – | – | – | INCREASE IN MIC (S. epidermidis [2]): 1.0 fold; MIC AFTER PASSAGE (S. epidermidis [2]): 0.31 µg/mL; MIC BEFORE PASSAGE (S. epidermidis [2]): 0.31 µg/mL
